# Measurements: patent US9340590B2 (priority 2011, dated 2016)
# pIC50: −log10 of the molar value. Where two headings read alike, the source gives them in different places. Positions of bridges follow the written chain, without caps; N, C: chain ends. Non-standard residues stand in square brackets, D forms with d. Residues, ends and D or L forms follow the SMILES beside them. Lys(Me2) = CN(C)CCCC[C@H](N)C(=O)O
# Columns and labels:
# Experiment in all cases: cell-based
# hNav1.5 = hNav1.5 (Homo sapiens, UniProt Q14524); conditions: IWQ Use Nav1.5 (μM)
# hNav1.3 = hNav1.3 (Homo sapiens, UniProt Q9NY46); conditions: Table 23; IonWorks Quattro, use; […]; read-out: IWQ Use Nav1.3
# hNav1.7 = hNav1.7 (Homo sapiens, UniProt Q15858)
# hNav1.7, sequence (Q15858 whole entry, looked up): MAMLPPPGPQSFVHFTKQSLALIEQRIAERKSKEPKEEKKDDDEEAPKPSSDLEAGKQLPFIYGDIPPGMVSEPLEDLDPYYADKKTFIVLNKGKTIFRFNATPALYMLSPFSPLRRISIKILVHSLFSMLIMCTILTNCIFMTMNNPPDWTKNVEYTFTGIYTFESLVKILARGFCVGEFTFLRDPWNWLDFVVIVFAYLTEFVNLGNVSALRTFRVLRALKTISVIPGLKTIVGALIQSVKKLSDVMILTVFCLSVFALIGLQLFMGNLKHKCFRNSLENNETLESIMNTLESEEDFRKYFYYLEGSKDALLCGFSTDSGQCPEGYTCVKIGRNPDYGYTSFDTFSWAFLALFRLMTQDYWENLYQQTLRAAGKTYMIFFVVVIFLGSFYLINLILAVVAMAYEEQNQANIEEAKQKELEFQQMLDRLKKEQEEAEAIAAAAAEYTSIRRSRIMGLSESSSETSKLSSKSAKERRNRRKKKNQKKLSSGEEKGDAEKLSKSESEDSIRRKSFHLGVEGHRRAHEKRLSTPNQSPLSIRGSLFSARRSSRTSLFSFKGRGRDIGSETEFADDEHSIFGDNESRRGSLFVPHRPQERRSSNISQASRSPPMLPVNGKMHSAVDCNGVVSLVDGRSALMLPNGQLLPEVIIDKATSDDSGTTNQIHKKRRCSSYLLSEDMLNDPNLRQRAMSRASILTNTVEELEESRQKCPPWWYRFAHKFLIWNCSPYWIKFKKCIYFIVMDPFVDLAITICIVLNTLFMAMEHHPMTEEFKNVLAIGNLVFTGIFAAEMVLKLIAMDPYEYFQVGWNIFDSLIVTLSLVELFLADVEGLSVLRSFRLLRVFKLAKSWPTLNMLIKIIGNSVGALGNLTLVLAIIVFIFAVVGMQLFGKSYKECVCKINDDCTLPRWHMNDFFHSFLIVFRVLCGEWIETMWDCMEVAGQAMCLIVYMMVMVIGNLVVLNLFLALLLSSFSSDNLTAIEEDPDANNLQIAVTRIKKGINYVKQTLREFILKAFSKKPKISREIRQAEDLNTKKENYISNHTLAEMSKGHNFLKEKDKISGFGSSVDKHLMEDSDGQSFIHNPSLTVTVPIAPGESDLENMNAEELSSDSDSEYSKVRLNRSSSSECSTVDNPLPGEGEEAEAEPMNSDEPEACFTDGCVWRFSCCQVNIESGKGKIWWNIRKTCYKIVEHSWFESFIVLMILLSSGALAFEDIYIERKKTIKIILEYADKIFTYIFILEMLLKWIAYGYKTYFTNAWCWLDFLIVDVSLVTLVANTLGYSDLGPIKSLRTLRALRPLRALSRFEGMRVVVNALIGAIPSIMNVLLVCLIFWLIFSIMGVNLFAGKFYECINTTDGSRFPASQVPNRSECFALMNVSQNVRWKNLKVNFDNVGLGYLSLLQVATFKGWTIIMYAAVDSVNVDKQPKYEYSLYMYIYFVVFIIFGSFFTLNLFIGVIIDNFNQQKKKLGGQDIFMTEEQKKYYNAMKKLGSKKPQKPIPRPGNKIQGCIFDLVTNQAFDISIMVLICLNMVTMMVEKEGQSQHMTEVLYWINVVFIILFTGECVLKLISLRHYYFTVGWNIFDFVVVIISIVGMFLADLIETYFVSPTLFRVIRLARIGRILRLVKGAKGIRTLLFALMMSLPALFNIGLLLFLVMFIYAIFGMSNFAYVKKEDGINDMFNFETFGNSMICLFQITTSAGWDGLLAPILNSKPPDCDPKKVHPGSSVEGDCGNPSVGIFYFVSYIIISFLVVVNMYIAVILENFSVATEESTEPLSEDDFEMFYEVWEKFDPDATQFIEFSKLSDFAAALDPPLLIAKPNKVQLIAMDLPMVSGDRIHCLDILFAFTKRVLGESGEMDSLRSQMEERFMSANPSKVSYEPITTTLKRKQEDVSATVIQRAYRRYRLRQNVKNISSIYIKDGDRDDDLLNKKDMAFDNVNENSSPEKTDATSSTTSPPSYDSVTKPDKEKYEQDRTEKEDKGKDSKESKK
# hNav1.3, sequence (Q9NY46 whole entry, looked up): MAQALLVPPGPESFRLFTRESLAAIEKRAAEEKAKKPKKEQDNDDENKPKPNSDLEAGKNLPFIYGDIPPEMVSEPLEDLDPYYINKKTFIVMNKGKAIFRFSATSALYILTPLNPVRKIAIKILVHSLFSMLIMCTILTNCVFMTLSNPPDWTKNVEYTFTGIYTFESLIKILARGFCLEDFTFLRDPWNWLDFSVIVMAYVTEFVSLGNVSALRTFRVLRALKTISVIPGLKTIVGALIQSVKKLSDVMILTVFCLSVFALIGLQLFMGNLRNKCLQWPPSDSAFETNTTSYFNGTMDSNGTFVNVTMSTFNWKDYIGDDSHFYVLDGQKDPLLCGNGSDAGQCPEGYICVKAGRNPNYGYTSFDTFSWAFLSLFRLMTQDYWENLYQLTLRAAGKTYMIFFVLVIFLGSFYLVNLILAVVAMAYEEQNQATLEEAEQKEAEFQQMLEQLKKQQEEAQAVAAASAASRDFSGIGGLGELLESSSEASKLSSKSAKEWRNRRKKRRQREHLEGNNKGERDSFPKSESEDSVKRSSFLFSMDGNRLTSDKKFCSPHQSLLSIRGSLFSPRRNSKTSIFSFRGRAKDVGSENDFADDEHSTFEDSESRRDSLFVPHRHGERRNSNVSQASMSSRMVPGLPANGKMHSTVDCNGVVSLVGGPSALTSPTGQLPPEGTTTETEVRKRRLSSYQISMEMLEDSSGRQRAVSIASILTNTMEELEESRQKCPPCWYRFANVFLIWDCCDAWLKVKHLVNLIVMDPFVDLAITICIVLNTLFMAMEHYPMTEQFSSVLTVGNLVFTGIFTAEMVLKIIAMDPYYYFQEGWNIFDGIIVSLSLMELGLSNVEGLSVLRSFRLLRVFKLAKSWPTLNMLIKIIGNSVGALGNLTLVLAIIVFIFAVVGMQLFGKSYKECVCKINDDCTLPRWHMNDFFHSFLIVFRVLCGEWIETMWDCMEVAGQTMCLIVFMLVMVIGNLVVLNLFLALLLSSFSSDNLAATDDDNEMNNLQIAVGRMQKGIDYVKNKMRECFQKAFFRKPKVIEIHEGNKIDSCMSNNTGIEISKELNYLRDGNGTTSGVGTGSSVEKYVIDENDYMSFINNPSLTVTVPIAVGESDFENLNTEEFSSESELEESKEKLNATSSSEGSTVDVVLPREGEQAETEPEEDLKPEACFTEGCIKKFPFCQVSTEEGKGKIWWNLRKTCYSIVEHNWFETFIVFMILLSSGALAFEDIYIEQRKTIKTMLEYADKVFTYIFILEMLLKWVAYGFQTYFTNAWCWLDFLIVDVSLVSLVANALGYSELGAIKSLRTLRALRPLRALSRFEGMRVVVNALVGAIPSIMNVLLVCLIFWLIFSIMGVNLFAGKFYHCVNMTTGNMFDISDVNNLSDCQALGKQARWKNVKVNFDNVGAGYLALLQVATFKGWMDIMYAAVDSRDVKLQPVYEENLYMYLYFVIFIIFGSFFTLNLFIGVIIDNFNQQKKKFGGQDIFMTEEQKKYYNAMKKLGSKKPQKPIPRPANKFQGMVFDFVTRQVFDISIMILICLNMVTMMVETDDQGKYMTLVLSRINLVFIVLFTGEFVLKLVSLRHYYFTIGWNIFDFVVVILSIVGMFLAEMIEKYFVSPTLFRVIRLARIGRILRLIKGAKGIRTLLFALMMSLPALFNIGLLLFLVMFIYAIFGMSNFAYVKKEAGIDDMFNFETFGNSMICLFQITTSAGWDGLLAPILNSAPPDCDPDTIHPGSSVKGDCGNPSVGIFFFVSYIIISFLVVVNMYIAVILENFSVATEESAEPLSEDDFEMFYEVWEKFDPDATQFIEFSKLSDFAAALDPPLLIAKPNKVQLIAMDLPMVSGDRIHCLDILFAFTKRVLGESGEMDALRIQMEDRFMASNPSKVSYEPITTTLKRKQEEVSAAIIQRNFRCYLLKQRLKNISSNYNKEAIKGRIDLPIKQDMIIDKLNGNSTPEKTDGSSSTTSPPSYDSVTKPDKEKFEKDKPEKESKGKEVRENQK
Structure (SMILES),pIC50 (hNav1.7; Nav1.7 Use IC50),other results
"CC[C@H](C)[C@@H]1NC(=O)[C@@H]2CSSC[C@@H]3NC(=O)[C@H](C(C)C)NC(=O)[C@H](CC(C)C)NC(=O)[C@H](CC(N)=O)NC(=O)[C@@H]4CCCN4C(=O)[C@H](CCCNC(=N)N)NC(=O)[C@H](CSSC[C@H](NC(=O)[C@@H](N)CC(=O)O)C(=O)N[C@@H](CC(C)C)C(=O)NCC(=O)N[C@@H](Cc4ccccc4)C(=O)N[C@@H](CCSC)C(=O)N[C@@H](CCCNC(=N)N)C(=O)N[C@@H](CCCCN)C(=O)N2)NC(=O)[C@H](CSSC[C@@H](C(=O)N[C@@H](CCCCN)C(=O)N[C@@H](Cc2ccc(O)cc2)C(=O)N[C@H](C(=O)N[C@@H](Cc2ccccc2)C(N)=O)C(C)C)NC(=O)[C@H](Cc2c[nH]c4ccccc24)NC(=O)[C@H](CCC(=O)O)NC(=O)[C@H](Cc2cnc[nH]2)NC(=O)[C@H]([C@@H](C)O)NC(=O)[C@H](CCCNC(=N)N)NC(=O)[C@H](CO)NC3=O)NC(=O)[C@H](CCCCN)NC(=O)[C@H](CC(=O)O)NC(=O)[C@H](CC(N)=O)NC(=O)[C@H](CC(=O)O)NC(=O)[C@@H]2CCCN2C1=O [SEQ ID NO: 153, [Glu28]GpTx-1(1-34)] (H-DCLGFMRKCIPDNDKCCRPNLVCSRTHEWCKYVF-NH2; disulfide 2-17, 9-23, 16-30)",7.30,IC50 (hNav1.5): 14.1 µM; pIC50 (hNav1.3): 6.10
"CC[C@H](C)[C@@H]1NC(=O)[C@@H]2CSSC[C@@H]3NC(=O)[C@H](C(C)C)NC(=O)[C@H](CC(C)C)NC(=O)[C@H](CC(N)=O)NC(=O)[C@@H]4CCCN4C(=O)[C@H](CCCNC(=N)N)NC(=O)[C@H](CSSC[C@H](NC(=O)[C@@H](N)CC(=O)O)C(=O)N[C@@H](CC(C)C)C(=O)NCC(=O)N[C@@H](Cc4ccccc4)C(=O)N[C@@H](CCSC)C(=O)N[C@@H](CCCNC(=N)N)C(=O)N[C@@H](CCCCN)C(=O)N2)NC(=O)[C@H](CSSC[C@@H](C(=O)N[C@@H](CCCCN)C(=O)N[C@@H](Cc2ccc(O)cc2)C(=O)N[C@H](C(=O)N[C@@H](Cc2ccccc2)C(N)=O)C(C)C)NC(=O)[C@H](Cc2c[nH]c4ccccc24)NC(=O)[C@H](CCCCN)NC(=O)[C@H](Cc2cnc[nH]2)NC(=O)[C@H]([C@@H](C)O)NC(=O)[C@H](CCCNC(=N)N)NC(=O)[C@H](CO)NC3=O)NC(=O)[C@H](CCCCN)NC(=O)[C@H](CC(=O)O)NC(=O)[C@H](CC(N)=O)NC(=O)[C@H](CC(=O)O)NC(=O)[C@H](CCC(=O)O)NC1=O [[Glu11]GpTx-1(1-34)] (H-DCLGFMRKCIEDNDKCCRPNLVCSRTHKWCKYVF-NH2; disulfide 2-17, 9-23, 16-30)",8.70,
"CC[C@H](C)[C@@H]1NC(=O)[C@@H]2CSSC[C@@H]3NC(=O)[C@H](C(C)C)NC(=O)[C@H](CC(C)C)NC(=O)[C@H](CC(N)=O)NC(=O)[C@@H]4CCCN4C(=O)[C@H](CCCCN(C)C)NC(=O)[C@H](CSSC[C@H](NC(=O)[C@@H](N)CC(=O)O)C(=O)N[C@@H](CC(C)C)C(=O)NCC(=O)N[C@@H](Cc4ccccc4)C(=O)N[C@@H](CCSC)C(=O)N[C@@H](CCCNC(=N)N)C(=O)N[C@@H](CCCCN)C(=O)N2)NC(=O)[C@H](CSSC[C@@H](C(=O)N[C@@H](CCCCN)C(=O)N[C@@H](Cc2ccc(O)cc2)C(=O)N[C@H](C(=O)N[C@@H](Cc2ccccc2)C(N)=O)C(C)C)NC(=O)[C@H](Cc2c[nH]c4ccccc24)NC(=O)[C@H](CCCCN)NC(=O)[C@H](Cc2c[nH]cn2)NC(=O)[C@H]([C@@H](C)O)NC(=O)[C@H](CCCNC(=N)N)NC(=O)[C@H](CO)NC3=O)NC(=O)[C@H](CCCCN)NC(=O)[C@H](CC(=O)O)NC(=O)[C@H](CC(N)=O)NC(=O)[C@H](CC(=O)O)NC(=O)[C@@H]2CCCN2C1=O [[K(Me2)18]GpTx-1(1-34)] (H-DCLGFMRKCIPDNDKCC[Lys(Me2)]PNLVCSRTHKWCKYVF-NH2; disulfide 2-17, 9-23, 16-30)",,pIC50 (hNav1.7; read-out: Nav1.7 Use IC50): 8.30
CC[C@H](C)[C@@H]1NC(=O)[C@@H]2CSSC[C@@H]3NC(=O)[C@H](C(C)C)NC(=O)[C@H](CC(C)C)NC(=O)[C@H](CC(N)=O)NC(=O)[C@@H]4CCCN4C(=O)[C@H](CCCNC(=N)N)NC(=O)[C@H](CSSC[C@H](NC(=O)[C@@H](N)CC(=O)O)C(=O)N[C@@H](CC(C)C)C(=O)NCC(=O)N(C)[C@@H](CC(C)C)C(=O)N[C@@H](CCSC)C(=O)N[C@@H](CCCNC(=N)N)C(=O)N[C@@H](CCCCN)C(=O)N2)NC(=O)[C@H](CSSC[C@@H](C(=O)N[C@@H](CCCCN)C(=O)N[C@@H](Cc2ccc(O)cc2)C(=O)N[C@H](C(=O)N[C@@H](Cc2ccccc2)C(N)=O)C(C)C)NC(=O)[C@H](Cc2c[nH]c4ccccc24)NC(=O)[C@H](CCCCN)NC(=O)[C@H](Cc2cnc[nH]2)NC(=O)[C@H]([C@@H](C)O)NC(=O)[C@H](CCCNC(=N)N)NC(=O)[C@H](CO)NC3=O)NC(=O)[C@H](CCCCN)NC(=O)[C@H](CC(=O)O)NC(=O)[C@H](CC(N)=O)NC(=O)[C@H](CC(=O)O)NC(=O)[C@@H]2CCCN2C1=O [[NMeLeu5]GpTx-1(1-34)],7.59,
CCC[C@@H]1NC(=O)CNC(=O)[C@H](CC(C)C)NC(=O)[C@@H](NC(=O)[C@@H](N)CC(=O)O)CSSC[C@@H]2NC(=O)[C@@H]3CSSC[C@@H](C(=O)N[C@@H](CCCCN)C(=O)N[C@@H](Cc4ccc(O)cc4)C(=O)N[C@H](C(=O)N[C@@H](Cc4ccccc4)C(N)=O)C(C)C)NC(=O)[C@H](Cc4c[nH]c5ccccc45)NC(=O)[C@H](CCCCN)NC(=O)[C@H](Cc4cnc[nH]4)NC(=O)[C@H]([C@@H](C)O)NC(=O)[C@H](CCCNC(=N)N)NC(=O)[C@H](CO)NC(=O)[C@H](CSSC[C@H](NC(=O)[C@H](CCCCN)NC(=O)[C@H](CCCNC(=N)N)NC(=O)[C@H](CCSC)NC1=O)C(=O)N[C@@H]([C@@H](C)CC)C(=O)N1CCC[C@H]1C(=O)N[C@@H](CC(=O)O)C(=O)N[C@@H](CC(N)=O)C(=O)N[C@@H](CC(=O)O)C(=O)N[C@@H](CCCCN)C(=O)N3)NC(=O)[C@H](C(C)C)NC(=O)[C@H](CC(C)C)NC(=O)[C@H](CC(N)=O)NC(=O)[C@@H]1CCCN1C(=O)[C@H](CCCNC(=N)N)NC2=O [[Nva5]GpTx-1(1-34)],7.42,
CC[C@H](C)[C@@H]1NC(=O)[C@@H]2CSSC[C@@H]3NC(=O)[C@H](C(C)C)NC(=O)[C@H](CC(C)C)NC(=O)[C@H](CC(N)=O)NC(=O)[C@@H]4CCCN4C(=O)[C@H](CCCNC(=N)N)NC(=O)[C@H](CSSC[C@H](NC(=O)[C@@H](N)CC(=O)O)C(=O)N[C@@H](CC(C)C)C(=O)NCC(=O)N[C@@H](C(C)(C)C)C(=O)N[C@@H](CCSC)C(=O)N[C@@H](CCCNC(=N)N)C(=O)N[C@@H](CCCCN)C(=O)N2)NC(=O)[C@H](CSSC[C@@H](C(=O)N[C@@H](CCCCN)C(=O)N[C@@H](Cc2ccc(O)cc2)C(=O)N[C@H](C(=O)N[C@@H](Cc2ccccc2)C(N)=O)C(C)C)NC(=O)[C@H](Cc2c[nH]c4ccccc24)NC(=O)[C@H](CCCCN)NC(=O)[C@H](Cc2cnc[nH]2)NC(=O)[C@H]([C@@H](C)O)NC(=O)[C@H](CCCNC(=N)N)NC(=O)[C@H](CO)NC3=O)NC(=O)[C@H](CCCCN)NC(=O)[C@H](CC(=O)O)NC(=O)[C@H](CC(N)=O)NC(=O)[C@H](CC(=O)O)NC(=O)[C@@H]2CCCN2C1=O [[Tle5]GpTx-1(1-34)],7.64,
